{"source": "patent US12576061B2", "about": "“Agent for inducing regression of triglyceride deposit atherosclerosis” (OSAKA UNIVERSITY, priority 2020, dated 2026)", "molecules": {"B1": {"name": "evolocumab: monoclonal antibody against PCSK9 (antibody, chains of the INN, looked up, V domains shown)", "VH": "EVQLVQSGAEVKKPGASVKVSCKASGYTLTSYGISWVRQAPGQGLEWMGWVSFYNGNTNYAQKLQGRGTMTTDPSTSTAYMELRSLRSDDTAVYYCARGYGMDVWGQGTTVTVSS", "VL": "ESALTQPASVSGSPGQSITISCTGTSSDVGGYNSVSWYQQHPGKAPKLMIYEVSNRPSGVSNRFSGSKSGNTASLTISGLQAEDEADYYCNSYTSTSMVFGGGTKLTVL"}}, "key": {"[1]": {"test_system": "dermal fibroblasts derived from a diabetic patient", "experiment": "Intracellular triglyceride content of dermal fibroblasts cultured with fatty acids", "assay_type": "cell-based, human", "settings": "2 days of culture; for potency for reducing triglyceride compared with other fatty acid: Example 4-2, 125 μM and 500 μM, FIG. 7", "source_text": "A portion of skin tissue was sampled from a diabetic patient after the patient's consent. This sample skin tissue was subjected to primary culture (culture medium: DMEM/10% FBS) by a tissue fragment culture method (Explant method) and subsequent successive passages, and then developed into a cell line. The dermal fibroblasts derived from the patient were used to examine the effect of various fatty acids on intracellular triglyceride content. The intracellular triglyceride content of the dermal fibroblasts derived from the diabetic patient was about 5 times higher than the average intracellular triglyceride content of dermal fibroblasts derived from three healthy subjects. The long-chain fatty acids used were palmitic acid (C16:0), oleic acid (C18:1), linoleic acid ([…]), arachidonic acid (C20:4), and […] (C20:5). The medium-chain fatty acids used were heptanoic acid (C7:0) and capric acid (C10:0). These different fatty acids were separately added at 50 μM and 500 μM to the media of dermal fibroblasts from the diabetic patient described above. After 2 days of culture, the cells were collected, and the intracellular triglyceride content was measured using a triglyceride quantification kit (BioVision). The medium-chain fatty acids used were capric acid (C10:0), caprylic acid (C8:0), and 8-methylnonanoic acid ([…]). These different fatty acids were separately added at 125 μM and 500 μM to the media of dermal fibroblasts from the diabetic patient described above. After 2 days of culture, the cells were collected, and the intracellular triglyceride content was measured using a triglyceride quantification kit (BioVision). For controls, 500 μM palmitic acid (C16:0) or no fatty acid was added to the medium of the same dermal fibroblasts as those used above."}, "[2]": {"test_system": "TG deposit atherosclerosis in the coronary artery", "experiment": "Coronary CT angiography, color-coded images of lipid accumulation in the coronary artery", "assay_type": "in vivo, human", "description": "Before and 50 days after the start of the tricaprin/trisdecanoin diet, a standard coronary CT angiography was performed to generate three-dimensional (3D) DICOM images of the left anterior descending coronary artery. The images were resampled to a voxel size of 0.1 mm^3 and color-coded according to CT values of individual voxels. Smoothing was applied between adjacent voxels. Colors were coded as follows: light gray (yellow in the color image): −25 HU to 0 HU (massive lipid accumulation); medium gray (orange in the color image): 0 HU to 40 HU (moderate lipid accumulation); dark gray (green in the color image): 40 HU to 125 HU (no lipid accumulation).\n(§1) Before and 4 years after the start of the tricaprin/trisdecanoin diet, a standard coronary CT angiography was performed, and the images of the inside of the left anterior descending coronary artery were color-coded in the same manner as described in Example 1. The images of the designated segment of the coronary artery were analyzed with a 3D image analysis system SYNAPSE VINCENT v5.5 (FUJIFILM Corporation) to examine changes in lipid accumulation and vascular lumen size in the designated segment. In the image analysis, the area with CT values ranging −25 to 40 HU was regarded as lipid accumulation, and the area with CT values ranging 215 to 700 HU was regarded as the vascular lumen.\n(§2) Angiograms of the coronary artery were taken before and 3 months after the start of the tricaprin/trisdecanoin diet. A standard coronary CT angiography was also performed, and the images were color-coded in the same manner as described in Example 1. The images of the designated segment of the coronary artery were subjected to 3D image analysis in the same manner as described in Example 2 to examine changes in lipid accumulation and vascular lumen size in the designated segment."}, "[3]": {"test_system": "TG deposit atherosclerosis in the coronary artery", "experiment": "3D image analysis (SYNAPSE VINCENT) of lipid accumulation and vascular lumen size in designated coronary segment", "assay_type": "in vivo, human", "description": "as §1, §2"}, "[4]": {"test_system": "coronary arteries of patient with idiopathic TGCV", "experiment": "Angiograms of the coronary artery, blood flow", "assay_type": "in vivo, human", "settings": "Example 3 patient, refractory angina", "description": "as §2"}, "[5]": {"experiment": "Serum lipid levels before and after the start of the tricaprin/trisdecanoin diet", "assay_type": "in vivo, human", "settings": "for LDL cholesterol, serum / HDL cholesterol, serum / TG (triglyceride), serum: After treatment", "description": "(§3) The mean values of the triglyceride, LDL cholesterol, and HDL cholesterol levels measured before the start of the tricaprin/trisdecanoin diet were compared to those measured for 4 years after the start of the tricaprin/trisdecanoin diet. […] The LDL cholesterol level was under control within the normal range (60 to 119 mg/dL).\nas §3, with “3 months” for “4 years”, “at a level lower than” for “within”"}, "[6]": {"test_system": "recurrent cerebral infarction", "experiment": "Clinical course of the patient during the tricaprin/trisdecanoin diet", "assay_type": "in vivo, human", "settings": "Example 2 patient with history of cerebral infarction; 1.5 g/day for 4 years", "source_text": "A person who had suffered from refractory angina for years. The patient had diabetes with a history of middle cerebral artery occlusion and cerebral infarction. The patient presented to hospital with a chief complaint of rest and nocturnal angina. […] Their chest pain was refractory to existing medications (sublingual nitroglycerin, calcium channel blockers, β-blockers, antiplatelet agents, and statins) and rather worsened. […] The patient received tricaprin/trisdecanoin three times per day after meals in a total daily dose of 1.5 g for 4 years."}, "PCSK9": {"target": "T1, PCSK9 (Homo sapiens, UniProt Q8NBP7)", "T1 construct": "randomly assigned to receive evolocumab (monoclonal antibody against PCSK9); host or cells: patients (in vivo, endogenous circulating PCSK9)", "T1 sequence (Q8NBP7 153-692)": "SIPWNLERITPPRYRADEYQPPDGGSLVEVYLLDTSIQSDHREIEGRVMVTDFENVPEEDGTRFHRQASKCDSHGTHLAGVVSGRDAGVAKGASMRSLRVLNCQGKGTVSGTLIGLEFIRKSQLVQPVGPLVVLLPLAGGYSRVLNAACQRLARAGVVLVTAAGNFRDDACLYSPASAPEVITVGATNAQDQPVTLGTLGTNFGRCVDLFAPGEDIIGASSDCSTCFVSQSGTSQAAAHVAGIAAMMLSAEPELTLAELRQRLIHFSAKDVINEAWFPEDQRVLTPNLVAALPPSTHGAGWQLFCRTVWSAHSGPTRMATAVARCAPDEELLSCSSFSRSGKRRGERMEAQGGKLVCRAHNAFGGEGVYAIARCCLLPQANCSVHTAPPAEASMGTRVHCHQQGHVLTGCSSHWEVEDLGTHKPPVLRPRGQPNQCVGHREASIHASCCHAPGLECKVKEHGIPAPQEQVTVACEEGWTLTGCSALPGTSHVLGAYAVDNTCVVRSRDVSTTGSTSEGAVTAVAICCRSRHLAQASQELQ", "settings": "evolocumab group (484 patients) on statin treatment, cited from earlier work"}, "[7]": {"settings": "Example 2 patient, 1.5 g/day for 4 years"}, "[8]": {"settings": "Example 3 patient, 4.5 g/day for 3 months"}}, "note": "Entries after “also recorded” stand apart in the source; their conditions may differ.", "data": [{"molecule": "CC(C)CCCCCCC(=O)O", "note": "[8-methylnonanoic acid]", "values": [{"measurement": "potency for reducing triglyceride compared with other fatty acid", "setting": "[1]", "value": "more potent medium-chain fatty acids for reducing triglyceride than palmitic acid"}]}, {"molecule": "CCCCCCCCCC(=O)O", "note": "[capric acid]", "values": [{"measurement": "intracellular triglyceride content relative to control cells (100%)", "setting": "[1]; Example 4-1, fatty acid added at 50 μM and 500 μM, FIG. 6", "value": "reduction in intracellular triglyceride content"}, {"measurement": "potency for reducing triglyceride compared with other fatty acid", "setting": "[1]", "value": "more potent medium-chain fatty acids for reducing triglyceride than palmitic acid"}]}, {"molecule": "CCCCCCCCCC(=O)OCC(COC(=O)CCCCCCCCC)OC(=O)CCCCCCCCC", "note": "[tricaprin/trisdecanoin]", "values": [{"measurement": "TG deposit atherosclerosis in the coronary artery (color-coded CT images)", "setting": "[2]; Example 1 patient, person with ATGL deficiency, 6 to 9 g/day after meals for 50 days, left anterior descending coronary artery", "value": "regression of TG deposit atherosclerosis in the coronary artery"}, {"measurement": "stenosis of the vascular lumen", "setting": "[2]; Example 2 patient, refractory angina, diabetes, 1.5 g/day for 4 years, segment 7 to 9 cm from coronary ostium, before diet 90% to 75% diffuse stenosis", "value": "about 25%"}, {"measurement": "TG deposit atherosclerosis in the coronary artery", "setting": "[2]; [7]", "value": "regression of TG deposit atherosclerosis in the coronary artery"}, {"measurement": "characteristic pattern of TG deposit atherosclerosis (lipid deposition protruding from adventitial toward medial side)", "setting": "[2]; [7]", "value": "diminished or disappeared"}, {"measurement": "diameter of the vascular lumen through which the blood flowed", "setting": "[2]; [7]", "value": "marked enlargement"}, {"measurement": "TG deposit atherosclerosis in the coronary artery", "setting": "[2]; [8]", "value": "regression of TG deposit atherosclerosis in the coronary artery"}, {"measurement": "diameter of the vascular lumen through which the blood flowed", "setting": "[2]; [8]", "value": "marked enlargement"}, {"measurement": "Vascular lumen", "setting": "[3]; % increase vs before diet, Example 2 patient, 1.5 g/day for 4 years, segment designated in FIG. 2, 2.2 cm, CT values 215 to 700 HU", "value": 260, "unit": "% increase"}, {"measurement": "Vascular lumen", "setting": "[3]; % increase, Example 3 patient, 4.5 g/day for 3 months, not stented segment Circumflex 7.2 cm", "value": 17, "unit": "% increase"}, {"measurement": "Vascular lumen", "setting": "[3]; % increase, Example 3 patient, 4.5 g/day for 3 months, not stented segment LAD 3.7 cm", "value": 48, "unit": "% increase"}, {"measurement": "Vascular lumen", "setting": "[3]; % increase, Example 3 patient, 4.5 g/day for 3 months, not stented segment RCA 3.4 cm", "value": 24, "unit": "% increase"}, {"measurement": "Lipid accumulation", "setting": "[3]; % reduction vs before diet, Example 2 patient, 1.5 g/day for 4 years, segment designated in FIG. 2, 2.2 cm, CT values -25 to 40 HU", "value": 27, "unit": "% reduction"}, {"measurement": "Lipid accumulation", "setting": "[3]; % reduction, Example 3 patient, 4.5 g/day for 3 months, not stented segment Circumflex 7.2 cm", "value": 50, "unit": "% reduction"}, {"measurement": "Lipid accumulation", "setting": "[3]; % reduction, Example 3 patient, 4.5 g/day for 3 months, not stented segment LAD 3.7 cm", "value": 53, "unit": "% reduction"}, {"measurement": "Lipid accumulation", "setting": "[3]; % reduction, Example 3 patient, 4.5 g/day for 3 months, not stented segment RCA 3.4 cm", "value": 14, "unit": "% reduction"}, {"measurement": "blood flow to the peripheral coronary arteries", "setting": "[4]; 4.5 g/day for 3 months", "value": "clearly improved"}, {"measurement": "blood flow in the coronary arteries as a whole", "setting": "[4]; oral 4.5 g/day for 3 months", "value": "improvement in coronary blood flow; also recorded: improvement in the blood flow"}, {"measurement": "LDL cholesterol, serum", "setting": "[5]; Mean ± SD over 3 months, Example 3 patient, 4.5 g/day, on statin, before treatment 52 ± 2.9", "value": "54 ± 1.8", "unit": "mg/dL"}, {"measurement": "HDL cholesterol, serum", "setting": "[5]; Mean ± SD over 3 months, Example 3 patient, 4.5 g/day, before treatment 35 ± 1.0", "value": "38 ± 1.0", "unit": "mg/dL"}, {"measurement": "TG (triglyceride), serum", "setting": "[5]; Mean ± SD over 3 months, Example 3 patient, 4.5 g/day, before treatment 78 ± 2.1", "value": "75 ± 11.3", "unit": "mg/dL"}, {"measurement": "HDL cholesterol, serum", "setting": "[5]; Mean ± SD over 4 years, Example 2 patient, 1.5 g/day, before treatment 34.5 ± 0.5", "value": "33 ± 4.0", "unit": "mg/dL"}, {"measurement": "LDL cholesterol, serum", "setting": "[5]; Mean ± SD over 4 years, Example 2 patient, 1.5 g/day, before treatment 95 ± 9.0", "value": "91 ± 13.6", "unit": "mg/dL"}, {"measurement": "TG (triglyceride), serum", "setting": "[5]; Mean ± SD over 4 years, Example 2 patient, 1.5 g/day, before treatment 308 ± 7.5", "value": "334 ± 118.2", "unit": "mg/dL"}, {"measurement": "effect on the serum lipid levels", "setting": "[5]; [7]", "value": "no effect on the serum lipid levels"}, {"measurement": "effect on the serum lipid levels", "setting": "[5]; [8]", "value": "no effect on the serum lipid levels"}, {"measurement": "recurrent cerebral infarction", "setting": "[6]", "value": "free from recurrent cerebral infarction"}]}, {"molecule": "B1", "values": [{"measurement": "LDL cholesterol level at week 76", "setting": "PCSK9; 92.6 mg/dL before the start of the trial", "value": 36.6, "unit": "mg/dL"}, {"measurement": "LDL cholesterol level at week 76 as % of the level before the start of the trial", "setting": "PCSK9", "value": "about 40%"}, {"measurement": "percent atheroma volume, reduction at week 76", "setting": "PCSK9", "value": 0.95, "unit": "%"}]}]}
